Tests used:
ERCC3 = target: T1, ERCC3 (Homo sapiens, UniProt P19447); test: isoTOP-ABPP and TMT-ABPP cysteine engagement, ERCC3; assay type: binding
T1 construct: endogenous in cells; host or cells: primary human T cells
T1 sequence (P19447 1-782): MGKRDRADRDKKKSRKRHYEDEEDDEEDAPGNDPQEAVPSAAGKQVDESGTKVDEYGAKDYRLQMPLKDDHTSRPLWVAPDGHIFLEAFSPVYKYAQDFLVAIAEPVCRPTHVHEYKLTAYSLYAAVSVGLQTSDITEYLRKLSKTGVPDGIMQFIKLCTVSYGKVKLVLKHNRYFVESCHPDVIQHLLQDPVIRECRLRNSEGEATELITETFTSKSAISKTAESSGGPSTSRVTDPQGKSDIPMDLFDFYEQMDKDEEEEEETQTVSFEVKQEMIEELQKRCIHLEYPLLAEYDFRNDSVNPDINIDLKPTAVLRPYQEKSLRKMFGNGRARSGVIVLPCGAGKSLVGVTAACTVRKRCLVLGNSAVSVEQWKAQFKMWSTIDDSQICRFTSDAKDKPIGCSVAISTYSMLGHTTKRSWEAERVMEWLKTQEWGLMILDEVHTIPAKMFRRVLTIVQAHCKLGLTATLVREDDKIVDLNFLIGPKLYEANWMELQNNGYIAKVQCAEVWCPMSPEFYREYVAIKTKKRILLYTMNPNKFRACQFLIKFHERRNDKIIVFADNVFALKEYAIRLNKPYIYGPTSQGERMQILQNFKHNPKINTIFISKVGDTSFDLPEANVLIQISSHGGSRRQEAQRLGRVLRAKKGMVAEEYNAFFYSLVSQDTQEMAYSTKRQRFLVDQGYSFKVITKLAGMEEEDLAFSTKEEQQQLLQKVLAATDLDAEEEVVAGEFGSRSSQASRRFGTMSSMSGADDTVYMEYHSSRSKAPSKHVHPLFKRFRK
Procedure: Activated or expanded T cells were re-suspended in RPMI media supplemented with 10% FBS, L-glutamine (2 mM), penicillin (100 U/mL), and streptomycin (100 μg/mL) at 2×10^6 cells/mL. The compounds were added to cells as 1000×DMSO stocks and mixed well with the media by pipetting up and down after addition. The cells were kept at 37° C. in 5% CO2 containing incubators for 3 h (or otherwise specified times), then pelleted by centrifugation (524 g, 5 min, 4° C.), washed with cold PBS (10 mL) and transferred to Eppendorf tubes (1 mL PBS). The cells were pelleted again (524 g, 5 min, 4° C.), flash-frozen, and kept at −80° C. until further analysis.
Activated or expanded primary human T cells were re-suspended in RPMI (1×10^6 cells/mL) containing 10% fetal bovine serum (FBS), penicillin (100 U/mL), streptomycin ([…]), and L-glutamine (2 mM). The cells were treated with DMSO or compounds for 3 h, pelleted (524 g, 5 min), washed with PBS, and lysed by sonication (2×8 pulses). Soluble and particulate proteomic fractions were separated by ultracentrifugation (100,000 g, 45 min), and protein concentration was normalized to 1.7 mg/mL using a standard DC protein assay (Bio-Rad). The resulting proteomes were analyzed by competitive isotopic Tandem Orthogonal Proteolysis Activity-Based Protein Profiling (isoTOP-ABPP).
Samples (500 μL, 1.7 mg/mL) were treated with iodoacetamide alkyne (IA-alkyne, 5 μL of 10 mM stock in DMSO, final concentration: 100 μM) for 1 h at ambient temperature. Modified proteins were then conjugated to isotopically labeled, TEV-cleavable biotin tags (TEV-tags) using copper-catalyzed azide-alkyne cycloaddition reaction (CuAAC). Reagents for the CuAAC reaction were pre-mixed prior to their addition to the proteome samples. […]
The heavy/light isoTOP-ABPP ratios (R values) for each unique peptide (DMSO/compound treated) were quantified with in-house CIMAGE software (Weerapana et al., 2010) using default parameters (3 MS1 acquisitions per peak and signal to noise threshold set to 2.5). Site-specific engagement of cysteine residues was assessed by blockade of IA-alkyne probe labeling. […] Ratios for unique peptide sequences were calculated for each experiment; overlapping peptides with the same modified cysteine (e.g., different charge states, elution times or tryptic termini) were grouped together and the median ratio was reported as the final ratio (R). […]

NFATc2 = test: NFAT pathway activation in stimulated T cells (western blot of NFATc2); assay type: cell-based, human; details: 4 h
Procedure: FIG. 22A and FIG. 22B show the effects of active compounds on NFAT pathway activation. […] FIG. 22C and FIG. 22D show the effects of active compounds on MAPK pathway. […] All treatments were done for 24 h.

Row | Structure (SMILES) | efficacy at ERCC3 C342, BPK-21 with respect to BPK-25 (ERCC3) | engagement of C342 of ERCC3 (ERCC3) | reductions in NFATc2 dephosphorylation (NFAT activation) (NFATc2) | NFATc2 expression (NFATc2)
1 | C=CC(=O)N(Cc1cccc(Cl)c1Cl)c1ccc(Oc2ccccc2)c(C(F)(F)F)c1 [BPK-21] | higher efficacy | alkylating C342 | did not appear to impact | 
2 | C=CC(=O)N(Cc1cccc(Cl)n1)c1ccc(C(=O)Nc2ccccc2)nc1 [BPK-25] |  | alkylating C342 |  | reduced NFATc2 expression

— patent US20240131032A1, “AN ACTIVITY-GUIDED MAP OF ELECTROPHILE-CYSTEINE INTERACTIONS IN PRIMARY HUMAN IMMUNE CELLS” (The Scripps Research Institute, priority 2019, published 2024)
